One data set concerns dCas9. Nature of the data set: dCas9-based transcriptional activation of HBG1 gene in HEK293FT cells (RT-qPCR). Type of data set: cell-based. Conditions: for inhibition of the HBG1 transcriptional activation: 48 hours. How it is done:
Transcription activation experiments and quantitative RT-PCR analyses. For transcription activation experiments 250,000 cells/well were plated in a 12 well plate. The cells were transiently transfected with a 1:1:1 mass ratio of the dCas9 plasmid, MS2-P65-HSF1 effector plasmid and the sgRNA plasmid targeting the HBG1 gene or an RFP control plasmid. A total of 1.6 μg plasmid DNA was transfected using Lipofectamine™ 2000 (Life Technologies™) according to manufacturer's protocol. Immediately after transfection, the cells were treated with an appropriate dose of the small molecule inhibitors for 48 hours following which the cells were harvested and RNA was extracted using the EZNA® Total RNA kit I (OMEGA) as per manufacturer's instructions. 1 μg total cellular RNA was used to perform reverse transcription using the High-Capacity cDNA Reverse Transcription Kit (Applied Biosystems™) or the qScript® cDNA Synthesis Kit (QUANTABIO). qPCR reactions were performed to quantify RNA expression using the TaqMan™ probes (Life Technologies™ HBG1/HBG2: Hs00361131_g1 and ACTB: Hs01060665_g1) and TaqMan™ Fast Advanced Master Mix (Life Technologies™) in 5 μL multiplexed reactions and 384-well format using the LightCycler® 480 Instrument II (ROCHE). For each sample, six technical replicates were performed. Data were analyzed using the LightCycler® 480 software (ROCHE) by the ΔΔCt method: Ct values for the gene of interest (HBG1) were normalized to Ct values for the housekeeping gene (ACTB) and fold-changes in the expression level of the gene of interest were normalized to RFP-transfected control. The data are reported as mean S.E.M. for technical replicates.
For transcription activation experiments 250,000 cells/well were plated in a 12 well plate. […] Data were analyzed using the LightCycler® 480 software (ROCHE) by the ΔΔCt method: Ct values for the gene of interest (HBG1) were normalized to Ct values for the housekeeping gene (ACTB) and fold-changes in the expression level of the gene of interest were normalized to RFP-transfected control. […]
Background: In qPCR the cycle at which signal appears reflects the starting amount.

The next data set deals with U2OS.eGFP.PEST cells. Nature of the data set: Cell viability assay (ATP content) of U2OS.eGFP.PEST cells. Conditions: for cytotoxicity (ATP content) in secondary screen: 20 μM compounds, 48 h; for cellular ATP-levels: U2OS cells, up to 20 μM, 24 h. Type of data set: cell-based, human. How it is done: FIG. 14—Cell viability assay (ATP content) of U2OS.eGPF.PEST cells in the presence of compounds. Measurement of ATP content of U2OS.eGFP.PEST cells upon incubating with 20 μM compounds for 48 h. Error bars represent ±S.D. from technical replicates (n=3).
FIG. 22—Cell viability assay (ATP content) of U2OS.eGFP.PEST cells in the presence of compounds. Measurement ATP content of U2OS.eGFP.PEST cells upon incubating with BRD7087 and BRD5779 (5-20 μM) for 24 h. Error bars represent ±S.D. from technical replicates (n=3).
FIG. 58. Cell viability assay (ATP content) of U2OS.eGFP.PEST cells in the presence of compounds. Measurement of ATP content of U2OS.eGFP.PEST cells upon incubating with 20 μM compound for 48 h. Error bars represent±S.D. from technical replicates (n=3).
FIG. 66. Cell viability assay (ATP content) of U2OS.eGFP.PEST cells in the presence of compounds. Measurement of ATP content of U2OS.eGFP.PEST cells upon incubating with BRD7087 and BRD5779 (5-20 μM) for 24 h. Error bars represent ±S.D. from technical replicates (n=3).

In the case of `COc1ccc(-c2ccc3c(c2)[C@H]2[C@H](CCN2Cc2ccncc2)[C@@H](CO)N3)cc1` [BRD5779, ((3aR,4S,9bR)-8-(4-Methoxyphenyl)-1-(pyridin-4-ylmethyl)-2,3,3a,4,5,9b-hexahydro-1H-pyrrolo[3,2-c]quinolin-4-yl)methanol], the “inhibition of the HBG1 transcriptional activation” value with dCas9 was “dose-dependent inhibition”. For the same compound, in the data set on U2OS.eGFP.PEST cells, the “cytotoxicity (ATP content) in secondary screen” value was “non-toxic” and the “cellular ATP-levels” value is recorded as “did not significantly alter”.
For the compound `OC[C@H]1Nc2ccc(-c3cccc(F)c3)cc2[C@H]2[C@@H]1CCN2Cc1ccncc1` [BRD7087, ((3aR,4S,9bR)-8-(3-Fluorophenyl)-1-(pyridin-4-ylmethyl)-2,3,3a,4,5,9b-hexahydro-1H-pyrrolo[3,2-c]quinolin-4-yl)methanol], the “inhibition of transcriptional activation” value in the data set with dCas9 (10 μM) was above 60%. In the data set with dCas9, the “inhibition of the HBG1 transcriptional activation” value is given as “dose-dependent inhibition”. Also, in the data set with U2OS.eGFP.PEST cells, the “cytotoxicity (ATP content) in secondary screen” value is given as “non-toxic” and the “cellular ATP-levels” value is recorded as “did not significantly alter”.
